PMC3195894 (FEBS letters, 2011)
pIC50: −log10 of the molar value.

Columns and labels:
recombinant human Chk1 = biological target: T1, recombinant human Chk1 (Homo sapiens, UniProt O14757); assay: IMAP fluorescence polarization kinase inhibition assay, Chk1; format: biochemical; conditions: read-out: IC50 Chk1; single assay; head-to-head testing, single batch of enzyme
T1 sequence (O14757 1-476): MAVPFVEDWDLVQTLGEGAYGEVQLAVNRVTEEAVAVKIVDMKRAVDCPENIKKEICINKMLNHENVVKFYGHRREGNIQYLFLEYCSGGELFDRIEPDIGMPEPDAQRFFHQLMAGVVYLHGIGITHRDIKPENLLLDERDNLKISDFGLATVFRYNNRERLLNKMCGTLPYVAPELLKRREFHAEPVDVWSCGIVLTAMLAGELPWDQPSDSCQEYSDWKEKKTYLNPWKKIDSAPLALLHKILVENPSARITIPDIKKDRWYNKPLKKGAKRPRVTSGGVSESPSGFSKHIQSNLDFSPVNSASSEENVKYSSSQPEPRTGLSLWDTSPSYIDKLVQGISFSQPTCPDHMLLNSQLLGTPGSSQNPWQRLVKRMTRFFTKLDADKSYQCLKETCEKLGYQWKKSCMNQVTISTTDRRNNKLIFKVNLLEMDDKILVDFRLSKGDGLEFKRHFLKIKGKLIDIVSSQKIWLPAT

recombinant human RSK2 = recombinant human RSK2 (Homo sapiens, UniProt P51812); assay: IMAP fluorescence polarization kinase inhibition assay, RSK2; format: biochemical; conditions: read-out: IC50 RSK2; single assay; head-to-head testing, single batch of enzyme
Chain of recombinant human RSK2 (P51812 whole entry): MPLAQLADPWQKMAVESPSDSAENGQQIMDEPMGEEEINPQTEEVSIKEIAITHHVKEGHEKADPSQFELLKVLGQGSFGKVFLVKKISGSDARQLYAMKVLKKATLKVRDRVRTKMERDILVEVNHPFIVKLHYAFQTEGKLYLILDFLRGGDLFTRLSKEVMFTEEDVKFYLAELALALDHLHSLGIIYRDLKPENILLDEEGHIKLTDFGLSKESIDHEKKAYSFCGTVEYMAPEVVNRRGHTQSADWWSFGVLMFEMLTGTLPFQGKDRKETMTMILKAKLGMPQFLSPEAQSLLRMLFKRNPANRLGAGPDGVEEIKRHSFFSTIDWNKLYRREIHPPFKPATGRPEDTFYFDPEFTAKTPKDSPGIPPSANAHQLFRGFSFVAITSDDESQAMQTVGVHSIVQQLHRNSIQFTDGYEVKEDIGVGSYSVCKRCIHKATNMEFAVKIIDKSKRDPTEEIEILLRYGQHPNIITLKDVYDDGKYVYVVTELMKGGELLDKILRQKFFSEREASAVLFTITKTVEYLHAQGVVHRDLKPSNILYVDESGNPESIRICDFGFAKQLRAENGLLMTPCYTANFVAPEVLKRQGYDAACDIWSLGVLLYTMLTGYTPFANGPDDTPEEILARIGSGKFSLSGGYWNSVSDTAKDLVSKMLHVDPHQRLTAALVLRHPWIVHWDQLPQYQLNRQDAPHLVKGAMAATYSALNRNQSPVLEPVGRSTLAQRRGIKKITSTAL

`CC(=NNC(=N)N)c1ccc(NC(=O)c2cc3cccc([N+](=O)[O-])c3[nH]2)cc1` [PV1019, 7-nitro-1H-indole-2-carboxylic acid {4-[1-(guanidinohydrazone)-ethyl]-phenyl}-amide] showed a pIC50 (recombinant human Chk1) of 5.09 and a pIC50 (recombinant human RSK2) of 4.41.
